The values below come from US11787783B2, “Heparanase inhibitors and use thereof” (Beta Therapeutics Pty Ltd, priority 2016, dated 2023).

Where two headings read alike, the source gives them in different places.

The subject of one experiment is RIP-OVAhi mice. Description: Adoptive transfer of Type 1 diabetes in transgenic RIP-OVAhi mice (acute Type 1 diabetes model). The class given is in vivo, mouse. Here is the method:
FIG. 2. Treatment of RIP-OVA^hi mice from the time of adoptive transfer of OVA-specific OT-1 and activated […] tg T cells with the small molecule heparanase inhibitor BT-2012 (10 mg/kg QD, IP in saline/50% DMSO).
FIG. 3. Treatment of RIP-OVA^hi mice from the time of adoptive transfer of OVA-specific OT-1 and activated OT-II tg T cells with a control heparanase inhibitor, (denoted “BT-1055”) (10 mg/kg QD, IP in saline/20% DMSO).
In NOD mice, the autoimmune disease process develops slowly because of the asynchronous destruction of the beta cells in different islets. Indeed Type 1 diabetes develops only after >90% of the total islet beta cell mass has been destroyed. The slow course of the disease in NOD mice offers realistic potential for immune intervention but, unfortunately, high throughput screening of test drugs is not feasible. A more acute model of diabetes can be induced experimentally using RIP-OVAhi transgenic mice which express a foreign ovalbumin (OVA) peptide, under the control of the rat insulin promoter (RIP), only in islet beta cells. Following adoptive transfer of naïve OVA specific CD8+ (OT-I) and activated OVA-specific CD4+ (OT-II) transgenic T cells, the transgenic T cells traffic to the host lymph nodes where the OT-I T cells become activated and then to the OVA-expressing pancreatic islets where they rapidly induce islet beta cell destruction and diabetes, all mice succumbing to rapid onset of high blood glucose levels (hyperglycaemia) in the second week after cell transfer. […]
Using the RIP-OVAhi transgenic mice the effect of a heparanase inhibitor compound (denoted “BT-1055”) was tested for its effect on blood glucose levels. Following adoptive transfer of naïve OVA specific CD8+ (OT-I) and activated OVA-specific CD4+ (OT-II) transgenic T cells into a number of RIP-OVAhi mice blood glucose was monitored regularly over two weeks in populations of mice treated with BT-1055 and a control group administered saline (FIG. 3).

A further experiment has as its target T1, heparanase (Homo sapiens, UniProt Q9Y251).
T1 sequence (Q9Y251 158-543 limits assumed): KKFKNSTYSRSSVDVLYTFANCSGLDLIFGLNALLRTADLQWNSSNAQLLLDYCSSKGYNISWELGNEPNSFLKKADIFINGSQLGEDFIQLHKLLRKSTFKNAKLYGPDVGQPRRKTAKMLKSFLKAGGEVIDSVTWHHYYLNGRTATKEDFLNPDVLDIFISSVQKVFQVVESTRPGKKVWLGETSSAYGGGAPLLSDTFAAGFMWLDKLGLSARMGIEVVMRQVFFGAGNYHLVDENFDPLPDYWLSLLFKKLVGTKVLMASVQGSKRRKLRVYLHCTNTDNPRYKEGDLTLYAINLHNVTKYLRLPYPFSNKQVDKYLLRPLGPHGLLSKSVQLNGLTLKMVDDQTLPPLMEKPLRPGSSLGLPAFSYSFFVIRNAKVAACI
T1 sequence (Q9Y251 36-109 limits assumed): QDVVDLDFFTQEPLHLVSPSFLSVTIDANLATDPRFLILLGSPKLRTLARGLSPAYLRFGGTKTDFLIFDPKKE
Description: Heparanase inhibition (IC50). The class given is biochemical. How it is done: Heparanase inhibition was determined using standard methods and the results expressed as the half maximal inhibitory concentration (IC50) being the concentration of the compound of the invention required to achieve 50% inhibition of heparanase.

Experiment [1] concerns db/db mice. Description: Intra-islet heparan sulfate content in db/db mice, Alcian blue staining. The class given is in vivo, mouse. The settings on record: 50 mg/kg daily intraperitoneal injection, versus saline treated db/db and wild-type mice. Here is the method:
FIG. 6. Intra-islet HS content in pancreas sections in treated db/db mice. Mice were treated daily with 50 mg/kg PI-88 IP from 4 weeks of age. Onset of clinical diabetes was determined by measuring urine glucose twice weekly with Multistix reagent strips and confirmed by measuring non-fasting blood glucose levels in tail vein blood using a MediSense glucometer with hyperglycemia defined as 2 consecutive blood glucose readings of 16 mmol/I or greater. Islet HS was detected by Alcian blue staining.
db/db mice were treated with saline or 50 mg/kg of PI-88 daily by intraperitoneal injection. At the cessation of treatment pancreatic islets were isolated and stained with alcian blue to visualise heparan sulfate and the heparan sulfate content of the islets was assessed by quantitative morphometric analyses.

Experiment [2] deals with db/db mice. Nature of the experiment: Insulin content in pancreas sections/islets of db/db mice (Type 2 diabetes model), anti-insulin antibody staining. Conditions: 50 mg/kg daily intraperitoneal injection, versus saline treated db/db and wild-type mice. The class given is in vivo, mouse. Here is the method:
FIG. 5. Insulin content in pancreas sections in db/db mice a model of Type 2 diabetes. Mice were treated daily with 50 mg/kg PI-88 IP from 4 weeks of age. Onset of clinical diabetes was determined by measuring urine glucose twice weekly with Multistix reagent strips and confirmed by measuring non-fasting blood glucose levels in tail vein blood using a MediSense glucometer with hyperglycemia defined as 2 consecutive blood glucose readings of 16 mmol/I or greater. Insulin was detected by anti-insulin antibody staining.
The db/db mouse has defective leptin signalling resulting from a point mutation in the leptin receptor gene. Plasma insulin levels become elevated very early in life (10-14 days of age), and the affected animals are obese by the time they are 3-4 weeks old. The animals are insulin resistant, hypertriglyceridemic, and have impaired glucose tolerance.
db/db mice were treated with saline or 50 mg/kg of PI-88 by daily intraperitoneal injection. At the cessation of treatment pancreatic islets were isolated and stained for insulin and the level of insulin expression assessed by quantitative morphometric analyses.

The mark [3] stands for this setting: read-out: Heparanase inhibition IC50.

The term IC50 denotes the concentration at which inhibition is half-maximal. As to `COc1cc2[nH]c(=S)n(CCc3c[nH]c4ccccc34)c(=N)c2cc1OC` [BT2012], the “Individual treated mice in which blood glucose remained normal” value in the experiment with RIP-OVAhi mice (10 mg/kg QD, IP, 14 day assay period) was 50%. Moreover, the “Incidence of diabetes (blood glucose >12 mmol) reduced” value in the experiment on RIP-OVAhi mice (10 mg/kg QD, IP, from the time of adoptive transfer of OT-I and activated OT-II tg T cells) was determined as 50%. Besides, in the experiment with RIP-OVAhi mice (10 mg/kg, by 14 days after transfer), the “Protection from Type 1 diabetes induction following adoptive transfer of diabetogenic tg T cells” value was “protected RIPOVAhi mice from Type 1 diabetes induction”. Further, the IC50 at heparanase (setting [3]) stood at 14.8 µM.

Regarding `COc1ccc2[nH]c(=S)n(CCc3c[nH]c4ccccc34)c(=N)c2c1` [BT2014], the IC50 at heparanase (setting [3]) came to 49.3 µM. With `COc1ccc(OC)c(Cn2c(=S)[nH]c3cc(OC)c(OC)cc3c2=N)c1` [BT2022], at heparanase (setting [3]), the IC50 was determined as 37.2 µM. As for `COc1cc2[nH]c(=S)n(CCc3cn(C)c4ccccc34)c(=N)c2cc1OC` [BT2024], the IC50 on heparanase (setting [3]) was found to be 27.4 µM. As for `COc1ccc(Cn2c(=S)[nH]c3cc(OC)c(OC)cc3c2=N)c(OC)c1` [BT2027], the IC50 on heparanase (setting [3]) turned out to be 40.1 µM.

`COc1cc2[nH]c(=S)n(CCc3c[nH]c4ccccc34)c(=N)c2cc1OC` [BT2044]: the IC50 at heparanase (setting [3]) came out at 30 µM. As to `COc1ccc2[nH]cc(CCn3c(=S)[nH]c4cc(OC)c(OC)cc4c3=N)c2c1` [BT2046], the half-maximal inhibitory concentration (IC50) on heparanase (setting [3]) was found to be 9.4 µM. `COc1cc2[nH]c(=S)n(CCc3c[nH]c4ccc(-c5cccnc5)cc34)c(=N)c2cc1OC` [BT2055]: the IC50 on heparanase (setting [3]) came to 19.1 µM. Turning to `COc1cc2[nH]c(=S)n(CCNC(=O)c3cc4ccc(-c5ccc(C(=O)N6CCN(C)CC6)cc5)cc4[nH]3)c(=N)c2cc1OC` [BT2073], the IC50 on heparanase (setting [3]) came out at 51 µM. Take `COc1cc2[nH]c(=S)n(CCNC(=O)c3cc4cc(-c5ccc(N6CCN(C)CC6)nc5)ccc4[nH]3)c(=N)c2cc1OC` [BT2075]: the IC50 on heparanase (setting [3]) stood at 20.6 µM. With `COc1cc2[nH]c(=S)n(CCNC(=O)c3cc4ccc(-c5ccc(N6CCN(C)CC6)nc5)cc4[nH]3)c(=N)c2cc1OC` [BT2076], the IC50 at heparanase (setting [3]) stood at 12.4 µM. As to `COc1cc2[nH]c(=S)n(CCNC(=O)c3cc4cc(-c5cnn(C)c5)ccc4[nH]3)c(=N)c2cc1OC` [BT2078], the IC50 on heparanase (setting [3]) was 34.8 µM. Consider `COc1cc2[nH]c(=O)n(CCNC(=O)c3cc4cc(C(=O)N5CCC5)ccc4[nH]3)c(=N)c2cc1OC` [BT2080], for which the half-inhibitory concentration (IC50) on heparanase (setting [3]) worked out at 90.4 µM. Regarding `COc1cc2[nH]c(=O)n(CCNC(=O)c3cc4cc(C(=O)N5CCOCC5)ccc4[nH]3)c(=N)c2cc1OC` [BT2081], the IC50 on heparanase (setting [3]) came out at 90.4 µM.

Turning to `COc1cc2[nH]c(=S)n(CCNC(=O)c3cc4cc(C(=O)N5CCOCC5)ccc4[nH]3)c(=N)c2cc1OC` [BT2082], the IC50 at heparanase (setting [3]) came to 35 µM.

Consider `COc1cc2[nH]c(=S)n(C3CN(C(=O)c4cc5cc(-c6cccnc6)ccc5[nH]4)C3)c(=N)c2cc1OC` [BT2085], for which the IC50 on heparanase (setting [3]) is 1.3 µM. Molecule `COc1cc2[nH]c(=S)n(CCn3cc(C(=O)NCCN4CCOCC4)c4ccccc43)c(=N)c2cc1OC` [BT2104] displayed an IC50 at heparanase (Heparanase inhibition IC50) of 44.8 µM. On to `COc1cc2[nH]c(=S)n(CCNC(=O)c3cccc(-c4ccccc4)n3)c(=N)c2cc1OC` [BT2115], for which the IC50 on heparanase (setting [3]) stood at 19.7 µM. Consider `COc1cc2[nH]c(=S)n(CCNC(=O)c3cccc(-c4ccc(C(=O)N5CCN(C)CC5)cc4)n3)c(=N)c2cc1OC` [BT2116], for which the IC50 at heparanase (setting [3]) came to 12.8 µM. Turning to `COc1cc2[nH]c(=S)n(CCNC(=O)c3cccc(-c4ccc5nonc5c4)n3)c(=N)c2cc1OC` [BT2117], the IC50 at heparanase (setting [3]) is 12.5 µM.

As for `COc1cc2[nH]c(=S)n(CCNC(=O)c3ccc(-c4ccccc4)nc3)c(=N)c2cc1OC` [BT2125], the IC50 on heparanase (setting [3]) is 15.6 µM. For `COc1cc2[nH]c(=S)n(CCNC(=O)c3nnc(-c4ccccc4)o3)c(=N)c2cc1OC` [BT2132], at heparanase (setting [3]), the IC50 was determined as 58.6 µM. In the case of `COc1cc2nc(SCc3ccccc3)n(CCNC(=O)c3cc4ccccc4[nH]3)c(=N)c2cc1OC` [BT2135], on heparanase (setting [3]), the IC50 came to 64 µM. Regarding `COc1cc2nc(SCc3ccc(C(F)(F)F)cc3)n(C3CN(C(=O)c4cc5ccc(-c6cccnc6)cc5[nH]4)C3)c(=N)c2cc1OC` [BT2139], the IC50 on heparanase (setting [3]) was determined as 13 µM. For the molecule `COc1cc2nc(SCc3ccc(C(F)(F)F)cc3)n(C3CN(C(=O)c4cc5ccc(-c6cccnc6)cc5[nH]4)C3)c(=N)c2cc1OC` [BT2140], the IC50 at heparanase (setting [3]) was 37.5 µM. As to `COc1cc2nc(SC)n(C3CN(C(=O)c4cc5ccc(-c6cccnc6)cc5[nH]4)C3)c(=N)c2cc1OC` [BT2141], the IC50 at heparanase (setting [3]) amounted to 23.6 µM. `COc1cc2nc(SCc3ccc(OC(F)(F)F)cc3)n(C3CN(C(=O)c4cc5ccc(-c6cccnc6)cc5[nH]4)C3)c(=N)c2cc1OC` [BT2142]: the IC50 on heparanase (setting [3]) amounted to 7 µM.

With `COc1cc2nc(SC)n(C3CN(C(=O)c4cc5ccc(-c6cccnc6)cc5[nH]4)C3)c(=N)c2cc1OC` [BT2143], the IC50 on heparanase (setting [3]) came to 33 µM. Consider `COc1cc2[nH]c(=S)n(CCNC(=O)c3nnc(-c4ccccc4)o3)c(=N)c2cc1OC` [BT2144], for which the IC50 at heparanase (setting [3]) worked out at 59.9 µM. As to `COc1cc2nc(SCc3ccc(OC(F)(F)F)cc3)n(C3CN(C(=O)c4cc5ccc(-c6cccnc6)cc5[nH]4)C3)c(=N)c2cc1OC` [BT2145], the IC50 at heparanase (setting [3]) amounted to 22 µM. Take PI-88: the “Islet heparan sulfate levels (quantitative morphometric analyses)” value in the experiment on db/db mice [1] was “increased compared to the saline treated db/db mice and are near to the levels of heparan sulfate in the islets of wild-type mice”. In the experiment with db/db mice [2], the “Expression of insulin in islets (quantitative morphometric analyses)” value is “increased compared to the saline treated db/db mice and is near to the level of insulin expression in the wild-type mice”.
